Experimental data taken from patent US9521847B2, “Synergistic weed control from applications of pyridine carboxylic acid herbicides and synthetic auxin herbicides and/or auxin transport inhibitors” (Dow AgroSciences LLC, priority 2014, dated 2016).
Like-named read-outs stand apart in the source and are kept apart here.

Experiments:
[1] = tested on: velvetleaf (Abutilon theophrasti, ABUTH); test: Greenhouse postemergence trial, % visual injury; type: in vivo; conditions: 140 g ae/ha alone; 20-22 d
[2] = tested on: winter rape (BRSNW, Brassica napus); test: Greenhouse postemergence trial, % visual injury; type: in vivo
[3] = tested on: Canadian thistle (CIRAR, Cirsium arvense); test: Greenhouse postemergence trial, % visual injury; conditions: Cirsium arvense, post-emergence;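 also: plants sprayed at second to third true leaf stage, injury scored visually 20-22 d later against solvent-blank sprayed controls, 0 meaning no injury and 100 complete kill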
spring barley (HORVS) = conditions: in vivo
[4] = tested on: common chickweed (Stellaria media, STEME); test: Greenhouse postemergence trial, % visual injury; type: in vivo
[5] = tested on: Russian thistle (Salsola iberica, SASKR); test: Greenhouse postemergence trial, % visual injury; type: in vivo
[6] = tested on: spring rape (Brassica napus, BRSNN); test: Greenhouse postemergence trial, % visual injury; conditions: Brassica napus, post-emergence
[7] = tested on: common lambsquarters (CHEAL, Chenopodium album L.); test: Greenhouse postemergence trial, % visual injury; type: in vivo; conditions: Chenopodium album, post-emergence; 140 g ae/ha alone; 20-22 d; read-out: % visual injury Obs
[8] = tested on: kochia (KCHSC, Kochia scoparia); test: Greenhouse postemergence trial, % visual injury; type: in vivo
Protocol: Following the protocol in Example 1, compound 1 and compound 2 were combined with 2,4 D EHE (EC) and applied to kochia (KCHSC, Kochia scoparia) and the phytotoxicity of the herbicidal compositions was measured.
Following the protocol in Example 1, compound 1 (EC) and Compound 2 (SC) were combined with diflufenzopyr and applied to kochia (Kochia scoparia, KCHSC) and the phytotoxicity of the herbicidal composition was measured.

[9] = tested on: pigweed (AMARE, Amaranthus retroflexus); test: Greenhouse postemergence trial, % visual injury; type: in vivo; conditions: for % visual injury, Obs: AMARE
[10] = tested on: wild buckwheat (Polygonum convolvulus, POLCO); test: Greenhouse postemergence trial, % visual injury; type: in vivo
maize (ZEAMX) = conditions: in vivo
[11] = tested on: poinsettia (Euphorbia heterophylla, EPHHL); test: Greenhouse postemergence trial, % visual injury; conditions: for pest or weed control at 140 g/ha: Euphorbia heterophylla, post-emergence
[12] = tested on: sunflower (Helianthus annus, HELAN); test: Greenhouse postemergence trial, % visual injury; type: in vivo; conditions: 140 g ae/ha alone; 20-22 d
[13] = tested on: wild pansy (Viola tricolor, VIOTR); test: Greenhouse postemergence trial, % visual injury
[14] = tested on: nutsedge (Cyperus esculentus, CYPES); test: Greenhouse postemergence trial, % visual injury; type: in vivo
[15] = tested on: ivyleaf morningglory (Ipomoea hederacea, IPOHE); test: Greenhouse postemergence trial, % visual injury; conditions: Ipomoea, post-emergence, read-out: % visual injury, Obs, IPOHE, 140 g ae/ha
common rice (ORYSA) = conditions: in vivo
[16] = tested on: wild mustard (Sinapis arvensis, SINAR); test: Greenhouse postemergence trial, % visual injury; type: in vivo
[17] = tested on: grain sorghum (Sorghum vulgare, SORVU); test: Greenhouse postemergence trial, % visual injury; type: in vivo
[18] = read-out: % visual injury (Obs)
[19] = Hordeum vulgare (spring barley)

## CCCCC(CC)COC(=O)COc1ccc(Cl)cc1Cl (centres unmarked) [2,4-D EHE, 2-ethylhexyl (2,4-dichlorophenoxy)acetate, reference compound]
[1]
  % visual injury Obs: 55%
[2]; 2,4-D EHE 400 g ae/ha
  % visual injury (Obs): 93%
[2]; 280 g ae/ha alone, 20-22 d
  % visual injury Obs: 85%
[2]; BRSNW, 400 g ae/ha
  % visual injury, Obs: 93%
[3]; [18]
  pest or weed control at 140 g/ha: 50%
  pest or weed control at 400 g/ha: 70%
[3]; read-out: % visual injury Obs
  pest or weed control at 140 g/ha: 50%
  pest or weed control at 280 g/ha: 73%
Spring barley (HORVS); [19]
  % visual injury (Obs): 0%
  % visual injury Obs: 0%
Spring barley (HORVS); spring barley (Hordeum vulgare)
  % visual injury (Obs): 10%
[4]; 2,4-D EHE 400 g ae/ha
  % visual injury (Obs): 10%
[4]; 140 g ae/ha alone, 20-22 d
  % visual injury Obs: 63%
[5]; 2,4-D EHE 400 g ae/ha
  % visual injury (Obs): 70%
[5]; SASKR, 400 g ae/ha
  % visual injury, Obs: 70%
[6]; [18]
  plant injury at 140 g/ha: 60%
  plant injury at 400 g/ha: 75%
[6]; read-out: % visual injury Obs
  plant injury at 140 g/ha: 60%
[6]; read-out: % visual injury, Obs
  plant injury at 140 g/ha: 65%
[7]
  pest or weed control at 140 g/ha: 73%
[8]; 2,4-D EHE 400 g ae/ha
  % visual injury (Obs): 10%
[8]; 280 g ae/ha alone, 20-22 d
  % visual injury Obs: 10%
[8]; Bassia scoparia, post-emergence, KCHSC, 400 g ae/ha, read-out: % visual injury, Obs
  pest or weed control at 400 g/ha: 50%
[9]; 140 g ae/ha
  % visual injury, Obs: 75%
[9]; 400 g ae/ha
  % visual injury, Obs: 80%
[9]; Amaranthus retroflexus, post-emergence, 140 g ae/ha alone, 20-22 d, read-out: % visual injury Obs
  pest or weed control at 140 g/ha: 95%
[9]; Amaranthus retroflexus, post-emergence, 280 g ae/ha alone, 20-22 d, read-out: % visual injury Obs
  pest or weed control at 280 g/ha: 30%
[10]; 2,4-D EHE 400 g ae/ha
  % visual injury (Obs): 80%
[10]; 2,4-D EHE 420 g ae/ha
  % visual injury (Obs): 60%
[10]; 140 g ae/ha alone, 20-22 d
  % visual injury Obs: 55%
Maize (ZEAMX); Zea mays (maize)
  % visual injury Obs: 0%
Maize (ZEAMX); maize (Zea mays)
  % visual injury (Obs): 0%
  % visual injury, Obs: 0%
[11]; 2,4-D EHE 400 g ae/ha
  % visual injury (Obs): 60%
[11]; read-out: % visual injury Obs, 140 g ae/ha alone, 20-22 d
  pest or weed control at 140 g/ha: 35%
[11]; read-out: % visual injury, Obs, EPHHL, 140 g ae/ha
  pest or weed control at 140 g/ha: 5%
[12]
  % visual injury Obs: 75%
[13]; 2,4-D EHE 140 g ae/ha
  % visual injury (Obs): 35%
[13]; 2,4-D EHE 400 g ae/ha
  % visual injury (Obs): 65%
[13]; Viola tricolor, post-emergence, read-out: % visual injury Obs
  pest or weed control at 140 g/ha: 35%
[14]; 2,4-D EHE 140 g ae/ha
  % visual injury (Obs): 0%
[14]; CYPES, 140 g ae/ha
  % visual injury, Obs: 10%
[14]; Cyperus, post-emergence, 140 g ae/ha alone, 20-22 d, read-out: % visual injury Obs
  pest or weed control at 140 g/ha: 0%
[15]
  pest or weed control at 140 g/ha: 93%
Common rice (ORYSA)
  % visual injury (Obs): 0%
  % visual injury, Obs: 10%
[16]; 2,4-D EHE 400 g ae/ha
  % visual injury (Obs): 97%
[16]; SINAR, 400 g ae/ha
  % visual injury, Obs: 97%
[17]; 2,4-D EHE 140 g ae/ha
  % visual injury (Obs): 0%
[17]; 140 g ae/ha alone, 20-22 d
  % visual injury Obs: 0%
